From ChEMBL document CHEMBL3621085, “Tetrazole regioisomers in the development of nitro group-containing antitubercular agents” (Medchemcomm, 2015)
Converted amounts (≈) assume the structure as drawn. The source made the active and inactive calls. The calls are words filed in the database; no cut-off is given here.

Assays:
[1] = biological target: T1, Heme oxygenase 1 (Homo sapiens, UniProt P09601); test: Inhibition of heme oxygenase-1 (unknown origin)
T1 sequence (P09601 whole entry): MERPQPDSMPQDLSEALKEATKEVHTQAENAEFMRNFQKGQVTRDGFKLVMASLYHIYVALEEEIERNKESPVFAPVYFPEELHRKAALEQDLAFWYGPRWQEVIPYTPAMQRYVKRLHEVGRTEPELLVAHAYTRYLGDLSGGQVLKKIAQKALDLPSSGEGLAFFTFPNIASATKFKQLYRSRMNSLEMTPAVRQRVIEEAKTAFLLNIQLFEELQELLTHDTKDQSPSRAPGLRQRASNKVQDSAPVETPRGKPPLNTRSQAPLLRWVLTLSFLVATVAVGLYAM

[2] = test system: Mycobacterium tuberculosis; test: Antimycobacterial activity against Mycobacterium tuberculosis My 331/88 after 14 days by micromethod; type: functional; conditions: My 331/88, 336 h
[3] = test system: Mycobacterium avium; test: Antimycobacterial activity against Mycobacterium avium My 330/88 after 14 days by micromethod; type: functional; conditions: My 330/88, 336 h
[4] = test system: Mycobacterium tuberculosis; test: Antimycobacterial activity against Mycobacterium tuberculosis My 331/88 after 21 days by micromethod; type: functional; conditions: My 331/88, 504 h
[5] = test system: Mycobacterium avium; test: Antimycobacterial activity against Mycobacterium avium My 330/88 after 21 days by micromethod; type: functional; conditions: My 330/88, 504 h
[6] = test system: Mycobacterium kansasii; test: Antimycobacterial activity against Mycobacterium kansasii My 235/80 after 7 days by micromethod; type: functional; conditions: My 235/80, 168 h
[7] = test system: Mycobacterium kansasii; test: Antimycobacterial activity against Mycobacterium kansasii My 235/80 after 14 days by micromethod; type: functional; conditions: My 235/80, 336 h
[8] = test system: Mycobacterium kansasii; test: Antimycobacterial activity against Mycobacterium kansasii My 235/80 after 21 days by micromethod; type: functional; conditions: My 235/80, 504 h
[9] = test system: Mycobacterium kansasii; test: Antimycobacterial activity against Mycobacterium kansasii 6509/96 after 7 days by micromethod; type: functional; conditions: 6509/96, 168 h
[10] = test system: Mycobacterium kansasii; test: Antimycobacterial activity against Mycobacterium kansasii 6509/96 after 14 days by micromethod; type: functional; conditions: 6509/96, 336 h
[11] = test system: Mycobacterium kansasii; test: Antimycobacterial activity against Mycobacterium kansasii 6509/96 after 21 days by micromethod; type: functional; conditions: 6509/96, 504 h
[12] = test system: Staphylococcus aureus; test: Antibacterial activity against Staphylococcus aureus ATCC 6538 after 24 to 48 hrs by broth micro dilution method; type: functional, organism-based
[13] = test system: Staphylococcus aureus; test: Antibacterial activity against methicillin-resistant Staphylococcus aureus H 5996/08 after 24 to 48 hrs by broth micro dilution method; type: functional, organism-based
[14] = test system: Staphylococcus epidermidis; test: Antibacterial activity against Staphylococcus epidermidis H 6966/08 after 24 to 48 hrs by broth micro dilution method; type: functional, organism-based
[15] = test system: Enterococcus faecalis; test: Antibacterial activity against Enterococcus faecalis J 14365/08 after 24 to 48 hrs by broth micro dilution method; type: functional, organism-based
[16] = test system: Escherichia coli; test: Antibacterial activity against Escherichia coli ATCC 8739 after 24 to 48 hrs by broth micro dilution method; type: functional, organism-based
[17] = test system: Klebsiella pneumoniae; test: Antibacterial activity against Klebsiella pneumoniae D 11750/08 after 24 to 48 hrs by broth micro dilution method; type: functional, organism-based
[18] = test system: Klebsiella pneumoniae; test: Antibacterial activity against Klebsiella pneumoniae J 14368/08 after 24 to 48 hrs by broth micro dilution method; type: functional, organism-based
[19] = test system: Klebsiella pneumoniae; test: Antibacterial activity against ESBL positive Klebsiella pneumoniae J 14368/08 after 24 to 48 hrs by broth micro dilution method; type: functional, organism-based
[20] = test system: Pseudomonas aeruginosa; test: Antibacterial activity against Pseudomonas aeruginosa ATCC 9027 after 24 to 48 hrs by broth micro dilution method; type: functional, organism-based
[21] = test system: Candida albicans; test: Antifungal activity against Candida albicans ATCC 44859 after 24 to 48 hrs by broth micro dilution method; type: functional, organism-based
[22] = test system: Candida tropicalis; test: Antifungal activity against Candida tropicalis 156 after 24 to 48 hrs by broth micro dilution method; type: functional, organism-based
[23] = test system: Pichia kudriavzevii; test: Antifungal activity against Candida krusei E28 after 24 to 48 hrs by broth micro dilution method; type: functional, organism-based
[24] = test system: Nakaseomyces glabratus; test: Antifungal activity against Candida glabrata 20/I after 24 to 48 hrs by broth micro dilution method; type: functional, organism-based
[25] = test system: Trichosporon asahii; test: Antifungal activity against Trichosporon asahii 1188 after 24 to 48 hrs by broth micro dilution method; type: functional, organism-based
[26] = test system: Aspergillus fumigatus; test: Antifungal activity against Aspergillus fumigatus 2318 after 24 to 48 hrs by broth micro dilution method; type: functional, organism-based
[27] = test system: Lichtheimia corymbifera; test: Antifungal activity against Absidia corymbifera 272 after 24 to 48 hrs by broth micro dilution method; type: functional, organism-based
[28] = test system: Trichophyton mentagrophytes; test: Antifungal activity against Trichophyton mentagrophytes 445 after 72 to 120 hrs by broth micro dilution method; type: functional, organism-based
[29] = Cytotoxicity against CHOK1 cells assessed as viability after 24 hrs by MTT assay; type: cell-based; conditions: Cricetulus griseus, CHO-K1, 24 h
[30] = test system: Salmonella typhimurium; test: Mutagenic activity in Salmonella typhimurium TA98 assessed as induction of reverse mutation at 50 uM; type: toxicity, organism-based; conditions: salmonella enterica subsp. enterica serovar typhimurium
[31] = test system: Salmonella typhimurium; test: Mutagenic activity in Salmonella typhimurium TA100 assessed as induction of reverse mutation at 50 uM; type: toxicity, organism-based; conditions: salmonella enterica subsp. enterica serovar typhimurium

Structure (SMILES) | MIC [2] [µM] | MIC [3] [µM] | MIC [4] [µM] | MIC [5] [µM] | MIC [6] [µM] | MIC [7] [µM] | MIC [8] [µM] | MIC [9] [µM] | MIC [10] [µM] | MIC [11] [µM] | Activity [12] | Activity [13] | Activity [14] | Activity [15] | Activity [16] | Activity [17] | Activity [18] | Activity [19] | Activity [20] | Activity [21] | further results
O=C(CCc1ccccc1)Cn1cnnn1 | – | – | – | – | – | – | – | – | – | – | – | – | – | – | – | – | – | – | – | – | IC50 [1]: 2.6 µM
O=[N+]([O-])c1cc(C[Se]c2nnnn2Cc2ccccc2)cc([N+](=O)[O-])c1 | 1 (≈ 0.419 µg/mL) | 32 (≈ 13.4 µg/mL) | 2 (≈ 0.839 µg/mL) | 32 (≈ 13.4 µg/mL) | 2 (≈ 0.839 µg/mL) | 4 (≈ 1.68 µg/mL) | 4 (≈ 1.68 µg/mL) | 4 (≈ 1.68 µg/mL) | 8 (≈ 3.35 µg/mL) | 8 (≈ 3.35 µg/mL) | inactive | inactive | inactive | inactive | inactive | inactive | inactive | inactive | inactive | inactive | Activity [22]: inactive; Activity [23]: inactive; Activity [24]: inactive; Activity [25]: inactive; Activity [26]: inactive; Activity [27]: inactive; Activity [28]: inactive; IC50 [29]: 71 µM; Activity [30]: Toxic; Activity [31]: Toxic
O=[N+]([O-])c1cc(C[Se]c2nnn(Cc3ccccc3)n2)cc([N+](=O)[O-])c1 | 1 (≈ 0.419 µg/mL) | 16 (≈ 6.71 µg/mL) | 1 (≈ 0.419 µg/mL) | 32 (≈ 13.4 µg/mL) | 1 (≈ 0.419 µg/mL) | 1 (≈ 0.419 µg/mL) | 1 (≈ 0.419 µg/mL) | 1 (≈ 0.419 µg/mL) | 1 (≈ 0.419 µg/mL) | 2 (≈ 0.839 µg/mL) | inactive | inactive | inactive | inactive | inactive | inactive | inactive | inactive | inactive | inactive | Activity [22]: inactive; Activity [23]: inactive; Activity [24]: inactive; Activity [25]: inactive; Activity [26]: inactive; Activity [27]: inactive; Activity [28]: inactive; IC50 [29]: 136 µM; Activity [30]: Toxic; Activity [31]: Toxic
O=[N+]([O-])c1cc(CSc2nnnn2Cc2ccccc2)cc([N+](=O)[O-])c1 | 1 (≈ 0.372 µg/mL) | 250 (≈ 93.1 µg/mL) | 2 (≈ 0.745 µg/mL) | 250 (≈ 93.1 µg/mL) | 2 (≈ 0.745 µg/mL) | 8 (≈ 2.98 µg/mL) | 8 (≈ 2.98 µg/mL) | 2 (≈ 0.745 µg/mL) | 4 (≈ 1.49 µg/mL) | 4 (≈ 1.49 µg/mL) | inactive | inactive | inactive | inactive | inactive | inactive | inactive | inactive | inactive | inactive | Activity [22]: inactive; Activity [23]: inactive; Activity [24]: inactive; Activity [25]: inactive; Activity [26]: inactive; Activity [27]: inactive; Activity [28]: inactive; IC50 [29]: 59 µM; Activity [30]: Non-toxic; Activity [31]: Non-toxic
O=[N+]([O-])c1cc(CSc2nnn(Cc3ccccc3)n2)cc([N+](=O)[O-])c1 | 1 (≈ 0.372 µg/mL) | 62 (≈ 23.1 µg/mL) | 1 (≈ 0.372 µg/mL) | 125 (≈ 46.5 µg/mL) | 8 (≈ 2.98 µg/mL) | 16 (≈ 5.96 µg/mL) | 16 (≈ 5.96 µg/mL) | 4 (≈ 1.49 µg/mL) | 4 (≈ 1.49 µg/mL) | 8 (≈ 2.98 µg/mL) | inactive | inactive | inactive | inactive | inactive | inactive | inactive | inactive | inactive | inactive | Activity [22]: inactive; Activity [23]: inactive; Activity [24]: inactive; Activity [25]: inactive; Activity [26]: inactive; Activity [27]: inactive; Activity [28]: inactive; IC50 [29]: 41 µM; Activity [30]: Toxic; Activity [31]: Toxic
